Results on eleven molecules are retold here after PubChem BioAssay (NCI).

Among the test systems are A549 NSCLC; HCT-116 colon; HL-60(TB) leukemia; HS 578T breast; PC-3 prostate; SNB-19 CNS; T-47D breast.
What all share (test): inhibition of tumour cell growth, NCI panel, 48 h

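96-well plates; 48 h exposure; 5 concentrations. Endpoints by linear interpolation between flanking doses. Not reached: highest tested concentration assigned. Here, GI50 denotes the concentration required for 50% inhibition of growth. Definition used: TGI = concentration required for complete inhibition of growth.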

`Oc1ccc(CCNCc2cc3c(cc2Br)OCO3)cc1`: the TGI with A549 NSCLC is > 100 µM; in the assay with HCT-116 colon it was > 100 µM; with HL-60(TB) leukemia, 84.4 µM; in the assay on HS 578T breast, > 100 µM; with PC-3 prostate, > 100 µM; in the assay with SNB-19 CNS, > 100 µM. Besides, in the assay with T-47D breast, the TGI was > 100 µM.

Take `CCC(=O)Nc1ccccc1C#C/C=C\C#Cc1ccccc1C(F)(F)F`: the GI50 in the assay with A549 NSCLC was 2.53 µM; with HCT-116 colon, 2.81 µM; in the assay with HL-60(TB) leukemia, 1.18 µM; in the assay with HS 578T breast, 1.35 µM; with PC-3 prostate it was 4.08 µM; in the assay with SNB-19 CNS, 5.52 µM. Besides, the GI50 in the assay with T-47D breast is 6.04 µM. The TGI is > 32.6 µM in the assay with A549 NSCLC; 25.8 µM with HCT-116 colon; > 10.4 µM in the assay with HL-60(TB) leukemia; 9.19 µM in the assay on HS 578T breast; > 50 µM with PC-3 prostate; > 50 µM in the assay with SNB-19 CNS. Also, in the assay on T-47D breast, the TGI is > 38.9 µM.

As to `C/C=C/[C@H]1O[C@@H]2C(=C[C@H]1O)C(=O)O[C@H]2C`, the GI50 is 19 µM in the assay with A549 NSCLC; 4.19 µM in the assay on HCT-116 colon; 35.7 µM in the assay on HL-60(TB) leukemia; 23.3 µM in the assay with HS 578T breast; 14.8 µM in the assay on PC-3 prostate; 35.6 µM in the assay with SNB-19 CNS. In addition, in the assay on T-47D breast, the GI50 was 7.34 µM. Besides, the TGI in the assay with A549 NSCLC was 42.3 µM; with HCT-116 colon, 16.7 µM; in the assay on HL-60(TB) leukemia it was > 100 µM; in the assay on HS 578T breast, 49.8 µM; in the assay with PC-3 prostate it was 30.8 µM; with SNB-19 CNS, > 54.6 µM. The same molecule gave a TGI in the assay with T-47D breast of 25.5 µM.

For `COCCN1CCN(Cc2ccc(-c3n[nH]c4c3C(=O)c3c(NC(=O)NN5CCOCC5)cccc3-4)cc2)CC1`, the GI50 was 0.0289 µM in the assay on A549 NSCLC; 0.00897 µM in the assay with HCT-116 colon; 0.00888 µM with HL-60(TB) leukemia; 0.0293 µM in the assay on HS 578T breast; 0.023 µM with PC-3 prostate; 0.0298 µM with SNB-19 CNS. In addition, the GI50 with T-47D breast was 0.0216 µM. For the same molecule, the TGI in the assay with A549 NSCLC is 0.214 µM; in the assay on HCT-116 colon, 1.14 µM; in the assay on HL-60(TB) leukemia it was 0.0453 µM; with HS 578T breast it was 1.22 µM; in the assay with PC-3 prostate it was > 3.86 µM; in the assay with SNB-19 CNS, > 10 µM.

Consider `Cc1[nH]nc2c1N=C(c1ccccc1F)c1cc(C(N)=O)ccc1N2`, for which the GI50 in the assay on A549 NSCLC is 7.56 µM; in the assay on HCT-116 colon it was 1.02 µM; with HL-60(TB) leukemia, 5.97 µM; with HS 578T breast, 0.511 µM; in the assay with PC-3 prostate, 2.26 µM; in the assay with SNB-19 CNS, 6.43 µM. Further, the GI50 with T-47D breast was 2.89 µM. Further, the TGI is > 25 µM in the assay on A549 NSCLC; > 25 µM in the assay with HCT-116 colon; 14.4 µM with HL-60(TB) leukemia; 7.25 µM in the assay with HS 578T breast; > 25 µM in the assay on PC-3 prostate; > 25 µM with SNB-19 CNS. In the assay with T-47D breast, the TGI is > 15.8 µM.

For `Cn1c2ccccc2c2c3[nH][nH]c(=O)c3c3c4ccccc4[nH]c3c21`, the GI50 in the assay with A549 NSCLC was 3.22 µM; in the assay on HCT-116 colon, 1.32 µM; in the assay on HL-60(TB) leukemia it was 2.46 µM; in the assay with HS 578T breast, 0.993 µM; in the assay with PC-3 prostate, 2.03 µM; in the assay on SNB-19 CNS, 3.05 µM. Also, the GI50 in the assay with T-47D breast is 2.05 µM. Besides, the TGI in the assay with A549 NSCLC was 16.8 µM; in the assay on HCT-116 colon, 92.5 µM; with HL-60(TB) leukemia, 6 µM; in the assay with HS 578T breast it was 5.88 µM; with PC-3 prostate it was 11.3 µM; in the assay with SNB-19 CNS, > 100 µM. For the same molecule, the TGI in the assay on T-47D breast is 13.4 µM.

As to `CN(C)CC(C(=O)Cc1ccccc1)c1ccccc1` (stereo not given), the GI50 in the assay on A549 NSCLC was 16.7 µM; in the assay on HCT-116 colon, 1.72 µM; in the assay on HL-60(TB) leukemia it was 1.83 µM; in the assay with HS 578T breast, 3.16 µM; with PC-3 prostate, 7.53 µM; in the assay on SNB-19 CNS, 15 µM. Further, the GI50 in the assay with T-47D breast is 1.11 µM. Further, the TGI stood at 35.5 µM in the assay on A549 NSCLC; 3.3 µM with HCT-116 colon; 5.75 µM in the assay on HL-60(TB) leukemia; 9.83 µM in the assay with HS 578T breast; 22.4 µM in the assay on PC-3 prostate; 30 µM in the assay with SNB-19 CNS. Moreover, the TGI with T-47D breast came out at 4.91 µM.

Turning to `Cc1[nH]c(-c2nc3ccccc3[nH]2)c(C)c1C(=O)NC(C)C1CCCCC1` (stereo not given), the GI50 in the assay with A549 NSCLC is 12.2 µM; with HCT-116 colon it was 10.1 µM; with HL-60(TB) leukemia it was 3.36 µM; in the assay with HS 578T breast, 8.88 µM; with PC-3 prostate, 12 µM; with SNB-19 CNS, 10.6 µM. The GI50 with T-47D breast was 12.4 µM. For the same molecule, the TGI in the assay with A549 NSCLC was 34 µM; in the assay with HCT-116 colon it was 24.2 µM; in the assay with HL-60(TB) leukemia, 13.1 µM; in the assay with HS 578T breast, 30.9 µM; in the assay with PC-3 prostate, 28.4 µM; with SNB-19 CNS, 24.8 µM. In the assay on T-47D breast, this molecule registered a TGI of 39.2 µM.

Turning to `COC(=O)/C=C1/SC(N2N=C(c3cccs3)CC2c2ccc(F)cc2)=NC1=O` (stereo not given), the GI50 in the assay on A549 NSCLC is 4.1 µM; in the assay with HCT-116 colon, 2.05 µM; in the assay with HL-60(TB) leukemia it was 2.88 µM; in the assay with HS 578T breast it was 4.46 µM; with PC-3 prostate, 1.92 µM; with SNB-19 CNS, 2.51 µM. Moreover, the GI50 with T-47D breast is 3.27 µM. In addition, the TGI in the assay on A549 NSCLC is 20.6 µM; in the assay on HCT-116 colon, 3.82 µM; in the assay with HL-60(TB) leukemia it was 6.35 µM; with HS 578T breast, > 100 µM; with PC-3 prostate, 4.3 µM; in the assay with SNB-19 CNS, 6.32 µM. The molecule further came in with a TGI in the assay on T-47D breast of 8.31 µM.

Regarding `Cc1ccc(C(SCC(N)C(=O)O)(c2ccccc2)c2ccccc2)cc1` (stereo not given), the GI50 in the assay with A549 NSCLC was 0.153 µM; in the assay on HCT-116 colon, 0.0384 µM; with HL-60(TB) leukemia, 0.0878 µM; in the assay with HS 578T breast, 0.0371 µM; with PC-3 prostate it was 0.075 µM; in the assay on SNB-19 CNS it was 0.125 µM. In addition, in the assay on T-47D breast, the GI50 is 0.123 µM. For the same molecule, the TGI with A549 NSCLC was > 100 µM; with HCT-116 colon it was 13 µM; in the assay on HS 578T breast it was 0.913 µM; with PC-3 prostate, > 100 µM; in the assay with SNB-19 CNS, > 100 µM; in the assay with T-47D breast it was > 77.7 µM.

As for `O=C1Nc2ccccc2/C1=C\c1nc(C2CCN(S(=O)(=O)c3ccc(F)cc3)CC2)n2ccccc12`, the GI50 in the assay on A549 NSCLC is > 100 µM; with HCT-116 colon it was 13.3 µM; in the assay on HL-60(TB) leukemia, > 100 µM; in the assay on HS 578T breast it was 1.22 µM; in the assay with PC-3 prostate, 4.98 µM; in the assay on SNB-19 CNS it was 3.99 µM. For the same molecule, in the assay on T-47D breast, the GI50 is 4.57 µM. For the same molecule, the TGI with A549 NSCLC is > 100 µM; in the assay on HCT-116 colon it was > 100 µM; in the assay on HL-60(TB) leukemia, > 100 µM; in the assay on HS 578T breast, 5.78 µM; in the assay on PC-3 prostate it was > 100 µM; in the assay on SNB-19 CNS, 33.3 µM. In addition, the TGI with T-47D breast is > 100 µM.
